Measured values from PubChem BioAssay (NCI).
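Grown in 96-well plates, cells were treated for 48 hours with each compound at five concentrations. Insufficient inhibition: endpoint recorded as highest concentration tested. TGI denotes the concentration required for complete inhibition of growth.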

Legend:
Assay in all cases: NCI tumour cell line growth inhibition, 48 h
SF-539 CNS = tested on: SF-539 CNS
NCI-H226 lung = tested on: NCI-H226 lung
MDA-N = tested on: MDA-N
UO-31 renal = tested on: UO-31 renal
SNB-75 CNS = tested on: SNB-75 CNS
K-562 leukemia = tested on: K-562 leukemia
SF-268 CNS = tested on: SF-268 CNS
OVCAR-3 ovarian = tested on: OVCAR-3 ovarian
HS 578T breast = tested on: HS 578T breast
IGROV1 ovarian = tested on: IGROV1 ovarian
OVCAR-4 ovarian = tested on: OVCAR-4 ovarian
SK-OV-3 ovarian = tested on: SK-OV-3 ovarian
MOLT-4 leukemia = tested on: MOLT-4 leukemia
UACC-62 melanoma = tested on: UACC-62 melanoma
LOX IMVI melanoma = tested on: LOX IMVI melanoma
CAKI-1 renal = tested on: CAKI-1 renal
M14 melanoma = tested on: M14 melanoma
HCT-116 colon = tested on: HCT-116 colon
MCF7 breast = tested on: MCF7 breast
NCI-H522 lung = tested on: NCI-H522 lung
SK-MEL-2 melanoma = tested on: SK-MEL-2 melanoma
KM12 colon = tested on: KM12 colon
UACC-257 melanoma = tested on: UACC-257 melanoma
ACHN renal = tested on: ACHN renal
SNB-19 CNS = tested on: SNB-19 CNS
TK-10 renal = tested on: TK-10 renal
U251 CNS = tested on: U251 CNS
EKVX NSCLC = tested on: EKVX NSCLC
OVCAR-5 ovarian = tested on: OVCAR-5 ovarian
SW-620 colon = tested on: SW-620 colon
SK-MEL-28 melanoma = tested on: SK-MEL-28 melanoma
BT-549 breast = tested on: BT-549 breast
T-47D breast = tested on: T-47D breast
HL-60(TB) leukemia = tested on: HL-60(TB) leukemia
SN12C renal = tested on: SN12C renal
HT29 colon = tested on: HT29 colon
PC-3 prostate = tested on: PC-3 prostate
COLO 205 colon = tested on: COLO 205 colon
NCI-H460 lung = tested on: NCI-H460 lung
MDA-MB-435 = tested on: MDA-MB-435
MDA-MB-231 breast = tested on: MDA-MB-231 breast
HCT-15 colon = tested on: HCT-15 colon
DU-145 prostate = tested on: DU-145 prostate
SK-MEL-5 melanoma = tested on: SK-MEL-5 melanoma
NCI-H23 lung = tested on: NCI-H23 lung
A549 NSCLC = tested on: A549 NSCLC
A498 renal = tested on: A498 renal
HOP-62 NSCLC = tested on: HOP-62 NSCLC
CCRF-CEM leukemia = tested on: CCRF-CEM leukemia
OVCAR-8 ovarian = tested on: OVCAR-8 ovarian
SF-295 CNS = tested on: SF-295 CNS
786-0 renal = tested on: 786-0 renal
NCI/ADR-RES ovarian = tested on: NCI/ADR-RES ovarian
RPMI-8226 leukemia = tested on: RPMI-8226 leukemia
SR leukemia = tested on: SR leukemia

Measured: TGI

CN(C)C1C(CO)OC(n2cnc3c(N)ncnc32)C1O (stereo not given)
> 100 µM: SF-539 CNS | NCI-H226 lung | MDA-N | UO-31 renal | SNB-75 CNS | K-562 leukemia | SF-268 CNS | OVCAR-3 ovarian | HS 578T breast | IGROV1 ovarian | OVCAR-4 ovarian | SK-OV-3 ovarian | MOLT-4 leukemia | UACC-62 melanoma | LOX IMVI melanoma | CAKI-1 renal | M14 melanoma | HCT-116 colon | MCF7 breast | NCI-H522 lung | SK-MEL-2 melanoma | KM12 colon | UACC-257 melanoma | ACHN renal | SNB-19 CNS | TK-10 renal | U251 CNS | EKVX NSCLC | OVCAR-5 ovarian | SW-620 colon | SK-MEL-28 melanoma | BT-549 breast | T-47D breast | HL-60(TB) leukemia | SN12C renal | HT29 colon | PC-3 prostate | COLO 205 colon | NCI-H460 lung | MDA-MB-435 | MDA-MB-231 breast | HCT-15 colon | DU-145 prostate | SK-MEL-5 melanoma | NCI-H23 lung | A549 NSCLC | A498 renal | HOP-62 NSCLC | CCRF-CEM leukemia | OVCAR-8 ovarian | SF-295 CNS | 786-0 renal | NCI/ADR-RES ovarian | RPMI-8226 leukemia | SR leukemia
